The nature of series [1]: Delay of hyaluronic acid degradation by reactive oxygen species in hyaluronic acid solution (viscosity, rheometer). The settings on record: 1.5 wt % hyaluronic acid in PBS, peptide 100, 1000, 5000 ppm, 500 mM H2O2, 60 and 180 minutes, FIG. 5. The procedure:
Hyaluronic acid was dissolved in PBS to a concentration of 1.5 wt % and hydrated, and 10 g of this solution was dispensed into each conical tube. Peptide solutions were added to the dispensed hyaluronic acid solutions so that the final peptide concentrations were 0 ppm (no addition), 100 ppm, 1000 ppm, and 5000 ppm, respectively. 2 mL of 500 mM hydrogen peroxide (H2O2) was added to each. Viscosity was measured using a rheometer (single shear stress) by sampling at 0, 30, 60, and 180 minutes to compare the viscosity values according to the peptide concentration. As above, 1.5 wt % hyaluronic acid solutions containing peptides at each concentration were treated with hydrogen peroxide to maintain the degradation reaction by reactive oxygen species for 60 and 180 minutes, thereby degrading hyaluronic acid. After the degradation reaction, the viscosity of each hyaluronic acid solution was measured to confirm the degradation delaying efficacy.

Series [2] in a line: pH stability of peptide (HPLC area). In kind it is physicochemical. The settings on record: 1000 ppm solution titrated to pH 4, pH 7, pH 10, HPLC area relative to pH 7, FIG. 7b. The procedure: The evaluation of pH stability was performed as follows. A diluted solution of the peptide of Preparation Example 1 at a concentration of 1000 ppm was prepared, and the initial pH value of the solution was measured (pH=3.21). 0.5 M NaOH was added so as to titrate the pH of the solution to pH 4, pH 7, and pH 10, respectively. Each sample was filtered through a 0.22 μm filter. The area values were compared based on pH 7 measured by HPLC.

Series [3] can be described thus: Delay of hyaluronic acid degradation by reactive oxygen species in BDDE-cross-linked hyaluronic acid filler (Congo Red diffusion, absorbance 500 nm). The conditions noted are these: 37° C., FIG. 6. How it is done: A 1,4-Butanediol diglycidyl ether (BDDE)-cross-linked hyaluronic acid filler with or without the peptide of Preparation Example 1 was prepared, and Congo Red and hyaluronidase (HAdase) as absorbing dyes were prepared. 20 μL of 1 mM Congo Red was added to each 1.5 mL eppendorf tube, and 100 μL each of the peptide-free filler (control filler) and the peptide-containing filler were added on the absorbing dye. Each was treated with 350 μL of 500 mM hydrogen peroxide (H2O2). Each tube was placed in an incubator at 37° C., and 100 μL of the sample supernatant was collected at time points of 1 hour, 3 hours, 6 hours, 24 hours, 48 hours, and 72 hours and transferred to 96-wells. The absorbance was measured at 500 nm using a microplate reader (SpectraMax iD3, Molecular devices, USA). As above, BDDE-cross-linked hyaluronic acid filler samples with or without the peptide were prepared, and the degree of degradation of hyaluronic acid filler by reactive oxygen species was compared depending on the presence or absence of peptide. The degree of degradation of hyaluronic acid filler was measured by the change in absorbance due to the diffusion of dye. That is, the principle that the flowability of the sample increases when hyaluronic acid is degraded by reactive oxygen species and thus the diffusion of the dye increases was utilized.

The subject of series [4] is hyaluronidase from bovine testes. The experiment in a line: Delay of hyaluronic acid degradation by hyaluronidase in hyaluronic acid solution (viscosity, rheometer). In kind it is biochemical. The settings on record: 1.5 wt % hyaluronic acid in PBS. How it is done: Hyaluronic acid was dissolved in PBS to a concentration of 1.5 wt % and hydrated, and 10 g of this solution was dispensed into each conical tube. Peptide solutions were added to the dispensed hyaluronic acid solutions so that the final peptide concentrations were 0 ppm (no addition), 100 ppm, 1000 ppm, and 5000 ppm, respectively. 2 mL of hyaluronic acid degrading enzyme (hyaluronidase from bovine testes, Hadase, Sigma) was added to each conical tube. Viscosity was measured using a rheometer (single shear stress) by sampling at 0 and 30 minutes to compare the viscosity values according to the peptide concentration. As above, the 1.5 wt % hyaluronic acid solution containing the peptides at each concentration was treated with hyaluronidase, and the enzymatic reaction was maintained for 30 minutes to decompose hyaluronic acid. After the degradation reaction, the viscosity of the hyaluronic acid solution was measured to confirm the degradation delay efficacy.

The subject of series [5] is HaCaT cells (human keratinocyte cell line). Kind of series: Cell proliferation analysis (MTT). Type of series: cell-based. The settings on record: peptide 1.6-1000 μM, 72 hours, FIG. 1. How it is done:
(§1) NIH3T3 cells (mouse fibroblast) and HaCaT cells (human keratinocyte cell line) were seeded at a density of 1×10^4 cells/well in a 96-well plate and cultured for 24 hours. The cells were washed once with serum-free DMEM medium. Different amounts of peptides were added to 200 μL of serum-free DMEM medium to prepare peptide medium solutions having concentrations of 1.6 μM, 8 μM, 40 μM, 200 μM, and 1000 μM, and the prepared peptide medium solutions were treated to the washed cells. Then, the treated cells were cultured in a CO2 incubator at 37° C. for 72 hours, washed twice with PBS, and MTT (Sigma, Cat. No.: M2003, USA) solution was dispensed into each well to a final concentration of 0.5 mg/mL. Then, after blocking light, the cells were cultured in a CO2 incubator at 37° C. for 4 hours. The absorbance was measured at 540 nm using a microplate reader (SpectraMax iD3, Molecular devices, USA).

For series [6], the system named is NIH3T3 cells (mouse fibroblast). The experiment in a line: Cell proliferation analysis (MTT). Type of series: cell-based. The conditions noted are these: peptide 1.6-1000 μM, 72 hours, FIG. 1. The procedure: as §1
The next series has as its system hyaluronidase (HAdase). The experiment in a line: Delay of hyaluronic acid degradation by hyaluronidase in BDDE-cross-linked hyaluronic acid filler (Congo Red diffusion, absorbance 500 nm). Type of series: biochemical. The settings on record: 24 hours after treatment with hyaluronidase, 37° C., FIG. 4. The procedure:
A 1,4-Butanediol diglycidyl ether (BDDE)-cross-linked hyaluronic acid filler with or without the peptide of Preparation Example 1 was prepared, and Congo Red and hyaluronidase (HAdase) were prepared as absorbing dyes. 20 μL of 1 mM Congo Red was added to a 1.5 mL eppendorf tube, and 100 μL each of the peptide-free filler (control filler) and the peptide-containing filler were added on the absorbing dye. Each was treated with 350 μL of 0.15 mg/mL (108 units) of hyaluronidase. Each tube was placed in an incubator at 37° C., and 100 μL of the sample supernatant was collected at time points of 6 and 24 hours and transferred to a 96-well. The absorbance was measured at 500 nm using a microplate reader (SpectraMax iD3, Molecular Devices, USA). As above, BDDE-cross-linked hyaluronic acid filler samples with or without the peptide were prepared, and the degree of degradation of the hyaluronic acid filler by hyaluronidase was compared depending on the presence or absence of the peptide. The degree of degradation of the hyaluronic acid filler was measured by the change in absorbance according to the diffusion of the dye. That is, the principle, in which the flowability of the sample increases when hyaluronic acid is degraded by the degradation enzyme, thereby increasing the diffusion of the dye, was utilized.

Series [7] has as its system HaCaT cells (human keratinocyte cell line). Kind of series: Promotion of collagen and hyaluronic acid (HA) expression, ELISA of culture supernatant. In kind it is cell-based. The settings on record: 50 μM to 200 μM, 72 hours, FIG. 2. How it is done: (§2) NIH3T3 cells (mouse fibroblast) and HaCaT cells (human keratinocyte cell line) were seeded at a density of 1×10^4 cells/well in a 24-well plate and cultured for 24 hours. The cells were washed once with serum-free DMEM medium. Different amounts of peptides were added to 500 μL of serum-free DMEM medium to prepare peptide medium solutions having concentrations of 50 μM, 100 μM, and 200 μM, and the washed cells were treated with the prepared peptide medium solutions. As a positive control, 100 nM […] was used in NIH3T3 cells and 100 nM IGF-1 was used in HaCaT cells. The treated cells were then cultured in a CO2 incubator at 37° C. for 72 hours. The cell culture liquid was collected, centrifuged, and the supernatant was transferred to a tube. The obtained supernatant was subjected to ELISA analysis using the Collagen ELISA kit (Abcam, Cat No.: ab210579, UK) and HA ELISA kit (ECHELON Biosciences, Cat No.: K-1200, USA), respectively.
For orientation: In an ELISA, binding on a coated surface is turned into a signal by an enzyme label.

For series [8], the system named is NIH3T3 cells (mouse fibroblast). Described as above. The conditions noted are these: 50 μM to 200 μM, 72 hours, FIG. 2. Type of series: cell-based. The procedure: as §2
Series [9] can be described thus: Thermal stability of peptide (HPLC area). Type of series: physicochemical. The conditions noted are these: 1000 ppm solution, 25° C. and 50° C., 72 hours, FIG. 7a. How it is done: The evaluation of thermal stability was performed as follows. A diluted solution of the peptide of Preparation Example 1 at a concentration of 1000 ppm was prepared, dispensed into 50 mL conical tubes, and placed in an incubator at 25° C. and 50° C. After 72 hours, 1 mL of each sample was filtered through a 0.22 μm filter. The area values were compared at 25° C. based on pH 7 measured by HPLC.

With “KIWNLEPSRNGT (H2N-Lys-Ile-Trp-Asn-Leu-Glu-Pro-Ser-Arg-Asn-Gly-Thr-COOH) [peptide having SEQ ID NO: 1]”, the “degradation delaying efficacy (viscosity of hyaluronic acid solution after hydrogen peroxide)” value in series [1] is recorded as “degradation of hyaluronic acid was delayed as the concentration of peptide increased”. In [2], the pH stability entry was “stable even at a high temperature of 50 °C and in the range of pH 4 to pH 10”. Further, in series [3] (24 hours after treatment with 500 mM hydrogen peroxide), the “improvement of degradation delay versus peptide-free filler” value is recorded as not below 50%. Also, in series [3] (treated 48 hours with 500 mM hydrogen peroxide, filler without peptides mostly degraded), the “effect of delaying degradation” value is recorded as 85%. Besides, the “difference in the degradation delay efficacy of 1000 ppm and 5000 ppm” value in [4] (hyaluronidase 30 minutes) is “not significant”. In addition, the “degradation delay efficacy (viscosity of hyaluronic acid solution after hyaluronidase)” value in series [4] (peptide 100, 1000, 5000 ppm, 30 minutes, FIG. 3) was “degradation of hyaluronic acid was delayed as the concentration of the peptide increased”. Moreover, the “effect of promoting cell proliferation” value in [5] and in series [6] was “significant effect of promoting cell proliferation” throughout. The “improvement of delay of degradation versus peptide-free filler” value in the series with hyaluronidase (HAdase) is reported as not below 15%. Further, the collagen expression entry in series [7] (Collagen ELISA) and in series [8] (Collagen ELISA) was “significant increase in collagen expression” each time. Further, the “hyaluronic acid (HA) expression” value in series [7] (HA ELISA) and in series [8] (HA ELISA) was “increase in hyaluronic acid (HA) expression” throughout. Further, in series [9], the thermal stability result was “stable even at a high temperature of 50 °C”.

Source of the values: US20260283925A1, “NOVEL PEPTIDE HAVING ACTIVITY OF RETARDING DEGRADATION OF HYALURONIC ACID AND USES THEREOF” (CAREGEN CO., LTD., priority 2023, published 2026).
